Assays:
[1] = tested on: client proteins and HSP90-related proteins in SK-OV-3 tumor; assay: Immunoblot: change in expression amount of proteins in SK-OV-3 tumor after administration; assay type: in vivo, human; conditions: 40 mg/kg tail vein
Method: (§1) Thirty micrograms of total protein was subjected to electrophoresis in 8% acrylamide gel. Then, the protein was transferred onto a PVDF membrane at a voltage of 100 V for 60 min at 4 °C. The PVDF membrane on which the protein had been transferred was blocked in TBS-Tween (0.1%) containing 5% milk at normal temperature for 60 min, followed by incubating with each of primary antibodies described below overnight at 4 °C. • Primary antibody (supplier, product number, dilution ratio, exposure time) • EGFR (Santa Cruz, sc-003, 1:500, 1 min) • HER2 (Santa Cruz, sc-284, 1:2000, 5 sec) • HER3 (Santa Cruz, sc-285, 1:400, 1 min) • Met (Santa Cruz, sc-161, 1:500, 5 min) • IGF-1R (Cell Signaling, #3027, 1:500, 15 sec) • Raf-1 (Santa Cruz, sc-133, 1:300, 5 min) • Stat3 (BD Transduction Laboratory, 610189, 1:500, 15 sec) • pAkt (Cell Signaling, #4058S, 1:500, 1 min) • Akt (Cell Signaling, #4691S, 1:2000, 15 sec) • pERK (Santa Cruz, sc-16982-R, 1:500, 1 min) • ERK (Invitrogen, 44-654G, 1:1000, 15 sec) • mTOR (Cell Signaling, #2983S, 1:500, 15 sec) • MEK (Cell Signaling, #9122S, 1:500, 1 min) • HSP90 (Enzo Life Science, SPA-830, 1:500, 15 sec) • HSP70 (Enzo Life Science, SPA-810, 1:2000, 15 sec) • Actin (Santa Cruz, sc-8432/HRP, 1:300, 5 min)
(§2) After incubation, the blot membrane was washed with TBS-Tween (0.1%) at normal temperature for 10 min three times to thereby remove excessive primary antibodies. Then, the membrane was incubated with an appropriate secondary antibody (anti-rabbit IgG HRP conjugate or anti-mouse IgG HRP conjugate) at normal temperature for 60 min. The membrane was washed with TBS-Tween (0.1%) at normal temperature for 10 min three times to thereby remove excessive secondary antibodies. Then, the membrane was incubated with ECL Western Blotting Detection Reagents (GE Healthcare) for 2 min, followed by exposing to an X-ray film. Thus, the signal of the intended protein was detected.
(§3) Tumors to be transplanted derived from human ovarian cancer cell lines SK-OV-3 and TOV-21G were prepared in the same manner as in Example 1.
(§4) Protein extraction liquid was obtained from each tumor as follows. The human ovarian cancer tumors maintained by passage in SCID mice were transplanted subcutaneously to the dorsums of SCID mice with trocars. When the tumor volume of each tumor reached about 300 mm^3, the triazole (A-1) synthesized as the HSP90 inhibitor in Synthetic Example 1 was administered into a tail vein of each of the mice at a dose of 40 mg/kg in the same manner as in Example 1. The tumors were removed before and 4 and 24 hours after administration. At each time point, the tumors were removed from three mice for the SK-OV-3 tumor and two mice for the TOV-21G tumor. Protein extraction liquids were obtained in the same manner as in Example 1. The total protein amount in each of the extraction liquids was quantified in the same manner as in Example 1.
(§5) The immunoblot method was used to verify change in expression amounts of the client proteins and the HSP90-related proteins in the SK-OV-3 and TOV-21G tumors to which the triazole compound (A-1) had been administered, in the same manner as in Example 1. The types and dilution ratios of primary antibodies and secondary antibodies used were the same as in Example 1.

[2] = tested on: client proteins and HSP90-related proteins in TOV-21G tumor; assay: Immunoblot: change in expression amount of proteins in TOV-21G tumor after administration; assay type: in vivo, human; conditions: 40 mg/kg tail vein
Method: as §1, §2, §3, §4, §5

[3] = SK-OV-3 tumor after administration
[4] = SK-OV-3 tumor, 4 hours after administration

CC(C)c1cc(-c2n[nH]c(=O)n2-c2ccc(CN3CCN(C)CC3)cc2)c(O)cc1O [A-1, 5-(2,4-dihydroxy-5-isopropyl-phenyl)-4-[4-(4-methyl-piperazin-1-ylmethyl)-phenyl]-2,4-dihydro-[1,2,4]triazol-3-one]
expression amount of total Akt [1, 3]: not changed | expression amount of total ERK [1, 3]: not changed | expression level of EGFR [1, 4]: significantly decreased | expression level of IGF-1R [1, 4]: significantly decreased | expression level of Met [1, 4]: significantly decreased | expression level of mTOR [1, 4]: significantly decreased | expression level of pAkt [1, 4]: significantly decreased | expression level of pERK [1, 4]: significantly decreased | expression amount of total Akt [2]: not changed | expression amount of total ERK [2]: not changed | expression level of EGFR [2]: decreased | expression level of HER2 [2]: decreased | expression level of IGF-1R [2]: decreased | expression level of Met [2]: decreased | expression level of mTOR [2]: decreased | expression level of pAkt [2]: decreased
